The results in this text go back to patent US5670501A, “N-substituted 9-alkyladenines” (Discovery Therapeutics, Inc., priority 1994, dated 1997).

In assay [1] the target is T1, adenosine A1 receptor (Bos taurus, UniProt P28190).
T1 construct: were homogenized with a Brinkman polytron and the membranes were collected by centrifugation; from tissue; host or cells: bovine caudate membranes
T1 sequence (P28190 1-326): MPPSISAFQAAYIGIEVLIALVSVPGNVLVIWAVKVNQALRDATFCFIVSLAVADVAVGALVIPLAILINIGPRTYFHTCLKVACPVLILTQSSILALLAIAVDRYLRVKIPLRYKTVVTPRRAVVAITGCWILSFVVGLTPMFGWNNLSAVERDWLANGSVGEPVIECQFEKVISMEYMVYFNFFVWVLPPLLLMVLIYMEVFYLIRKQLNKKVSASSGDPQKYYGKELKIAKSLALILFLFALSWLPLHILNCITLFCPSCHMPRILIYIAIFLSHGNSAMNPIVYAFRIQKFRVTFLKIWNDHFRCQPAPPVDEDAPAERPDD
The experiment in a line: Receptor affinity (radioligand binding), A1, [3H]CHA. Details: species or system bovine. The following applies: for Ki: [3H]CHA, room temperature, 2 hours, tissues listed: bovine caudate, guinea pig cortex, guinea pig striatum (only Example 13 marked guinea pig); for Selectivity Ratio (A2 Ki /A1 Ki): radioligand binding. As for the experimental part: (§1) 1. Receptor Affinity Experiments (Radioligand Binding)
(§2) Tissues (bovine caudate, guinea pig cortex, guinea pig striatum) were homogenized with a Brinkman polytron and the membranes were collected by centrifugation at 40,000×g at 4° C. for 10 min. The membranes were washed by resuspension and centrifugation, resuspended, and incubated in the presence of 1 U/ml adenosine deaminase for 15-30 min. at 37° C. The membranes were diluted, centrifuged once, and resuspended to a final concentration of 0.5-2 mg protein/ml. Adenosine deaminase (0.1 U/ml) was included in the final resuspension. Assays were initiated by addition of membranes. The compounds of the present invention were subjected to the following experimental conditions: A1 determinations/incubated with [^3 H]CHA at room temperature for 2 hours, A2 determinations/incubated with [^3 H]NECA at room temperature for 1 hour. Assays were terminated by filtration, and the filters were counted in scintillation counters.

The next assay has as its target adenosine A2 receptor. The assay is described as follows: Receptor affinity (radioligand binding), A2, [3H]NECA. More on the design: species or system bovine / guinea pig. Particulars: room temperature, 1 hour. The protocol:
as §1, §2

Assay [2] concerns the target T2, adenosine A1 receptor (Cavia porcellus, UniProt P47745).
T2 construct: from tissue; host or cells: isolated guinea pig left atria
T2 sequence (P47745 1-326): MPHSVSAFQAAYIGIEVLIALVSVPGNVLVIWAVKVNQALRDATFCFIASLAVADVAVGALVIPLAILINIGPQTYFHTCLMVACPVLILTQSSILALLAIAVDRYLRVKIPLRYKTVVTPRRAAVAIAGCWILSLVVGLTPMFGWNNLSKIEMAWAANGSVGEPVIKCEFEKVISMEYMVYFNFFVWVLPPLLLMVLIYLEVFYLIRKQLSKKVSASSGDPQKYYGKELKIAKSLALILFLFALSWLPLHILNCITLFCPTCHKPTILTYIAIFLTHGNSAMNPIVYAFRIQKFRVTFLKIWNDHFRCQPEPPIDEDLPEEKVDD
The assay is described as follows: A1 in vitro functional test: negative inotropic response, left atria, antagonism of NECA. The format is cell-based, guinea pig. Particulars: for Kb: guinea pig left atria, electrically evoked twitch, NECA agonist, 31° C, Schild plot, read-out: A1 KB (antagonist dissociation constant); for Selectivity Ratio (A2 KB /A1 KB): functional. As for the experimental part:
2. Adenosine--A1 /A2 In Vitro Functional Tests
(A1 Assay: Negative inotropic response)-Guinea pig left atria were placed in organ baths filled with Krebs Henseleit solution gassed with 95% O2 and 5% CO2 and maintained at a temperature of 31° C. An initial resting tension of 1 gm. was placed on each tissue, which was allowed to equilibrate. Atria were stimulated electrically to produce twitch responses. A dose-response curve for the inhibition of the electrically-evoked twitch response was obtained by cumulative addition of the adenosine agonist […]. After the washout of the tissue, a fixed concentration of test compound was added and the tissue allowed to equilibrate for 1 hr. before cumulative additions of the adenosine agonist 5'-N-ethylcarboxamidoadenosine (NECA) to generate a new dose response curve. This procedure was repeated with different fixed concentrations of test compounds to generate a family of dose response curves. Schild plots were constructed from the resultant concentration-effect curves, and KB (antagonist dissociation constant) values were obtained. The results (see Table VII) are expressed as KB values (concentration of test compound such that one-half of the tissue adenosine receptor population is occupied by the test compound).

Turning to `CCN(CC)c1nc2c(N[C@H]3C[C@H]4CC[C@@H]3C4)ncnc2n1C` (relative stereo) [Example 10, (±)-N^6-(endo-2'-norbornyl)-8-diethylamino-9-methyladenine], at adenosine A1 receptor [1], the Ki worked out at 1 nM and the “Selectivity Ratio (A2 Ki /A1 Ki)” value stood at 331. The Ki at adenosine A2 receptor came out at 331 nM. For the same molecule, on adenosine A1 receptor [2], the Kb was determined as 117 nM.
Consider `CC(C)N(C)c1nc2c(N[C@H]3C[C@@H]4C[C@H]3C[C@@H]4O)ncnc2n1C` (relative stereo) [Example 16, (±)-N^6-[endo-2'-(endo-5'-hydroxy)norbornyl]-8-isopropylmethylamino-9-methyladenine], for which, on adenosine A1 receptor [1], the inhibition constant (Ki) was 0.0891 nM and the “Selectivity Ratio (A2 Ki /A1 Ki)” value was 2,626. Also, the Ki at adenosine A2 receptor stood at 234 nM. Further, at adenosine A1 receptor [2], the “Selectivity Ratio (A2 KB /A1 KB)” value was determined as 4450 and the Kb turned out to be 4 nM.
In the same order, the values of `Cn1c(Br)nc2c(N[C@H]3C[C@@H]4C[C@H]3C[C@@H]4O)ncnc21` (relative stereo) [Example 17, (±)-N^6-[endo-2'-(endo-5'-hydroxy)norbornyl]-8-bromo-9-methyladenine] are 1.17 nM, 59, 69.2 nM, 65 and 30 nM.
With `CN(C)c1nc2c(N[C@H]3C[C@@H]4C[C@H]3C[C@@H]4O)ncnc2n1C` (relative stereo) [Example 18, (±)-N^6-[endo-2'-(endo-5'-hydroxy)norbornyl]-8-dimethylamino-9-methyladenine], the Ki amounted to 2.75 nM at adenosine A1 receptor [1] and 275 nM at adenosine A2 receptor. Further, the “Selectivity Ratio (A2 Ki /A1 Ki)” value at adenosine A1 receptor [1] amounted to 100. Also, the Kb at adenosine A1 receptor [2] came out at 72 nM.
The corresponding values for `Cn1c(Br)nc2c(N[C@H]3C[C@H]4CC(=O)[C@@H]3C4)ncnc21` (relative stereo) [Example 19] are 3.47 nM, 347 nM, 100 and 115 nM.
For the molecule `Cn1c(N2CCCCC2)nc2c(N[C@H]3C[C@H]4CC[C@@H]3C4)ncnc21` (relative stereo) [Example 20, (±)-N^6-(endo-2'-norbornyl)-8-piperidinyl-9-methyladenine], at adenosine A1 receptor [1], the affinity, expressed as Ki, was 191 nM and the “Selectivity Ratio (A2 Ki /A1 Ki)” value is over 52. At adenosine A2 receptor, this molecule registered a Ki of over 10000 nM. Also, the Kb at adenosine A1 receptor [2] is 240 nM.
For `Cn1cnc2c(N[C@H]3C[C@@H]4C[C@H]3C[C@@H]4O)ncnc21` (relative stereo) [Example 21, (±)-N^6-[endo-2'-(endo-5'-hydroxy)-norbornyl]-9-methyladenine], at adenosine A1 receptor [1], the Ki was determined as 19.1 nM and the “Selectivity Ratio (A2 Ki /A1 Ki)” value is recorded as 165. Moreover, the Ki at adenosine A2 receptor turned out to be 3160 nM. Further, on adenosine A1 receptor [2], the “Selectivity Ratio (A2 KB /A1 KB)” value was 324 and the Kb worked out at 309 nM.
For the molecule `Cn1cnc2c(N[C@H]3C[C@@H]4C[C@H]3C[C@H]4O)ncnc21` (relative stereo) [Example 22], on adenosine A1 receptor [1], the Ki stood at 97.7 nM and the “Selectivity Ratio (A2 Ki /A1 Ki)” value was 323. In addition, the Ki on adenosine A2 receptor came out at 31600 nM. For the same molecule, the Kb on adenosine A1 receptor [2] came out at 2950 nM.
Take `Cn1cnc2c(N[C@H]3C[C@@H]4C[C@H]3[C@@H](O)C4)ncnc21` (relative stereo) [Example 23]: on adenosine A1 receptor [1], the Ki was 85.1 nM and the “Selectivity Ratio (A2 Ki /A1 Ki)” value came to 371. On adenosine A2 receptor, this molecule had a Ki of 31600 nM. The Kb at adenosine A1 receptor [2] came to 3800 nM.
The corresponding values for `Cn1cnc2c(N[C@H]3C[C@@H]4C[C@H]3[C@H](O)C4)ncnc21` (relative stereo) [Example 24] are 141 nM, 152, 21400 nM and 4680 nM.
The corresponding values for `Cn1cnc2c(N[C@H]3C[C@H]4C[C@@H]3C[C@@H]4O)ncnc21` (relative stereo) [Example 30, (±)-N^6-[exo-2',(exo-5'-hydroxy)-norbornyl]-9-methyladenine] are 363 nM, 1,176, 42700 nM and 1310 nM.
Consider `Cn1cnc2c(N[C@H]3C[C@H]4C[C@@H]3C[C@H]4O)ncnc21` (relative stereo) [Example 31], for which, on adenosine A1 receptor [1], the Ki came out at 105 nM and the “Selectivity Ratio (A2 Ki /A1 Ki)” value turned out to be 137. This molecule came in with a Ki at adenosine A2 receptor of 14400 nM. Moreover, at adenosine A1 receptor [2], the Kb is 4070 nM.
Take `Cn1cnc2c(N[C@H]3C[C@H]4C[C@@H]3[C@@H](O)C4)ncnc21` (relative stereo) [Example 32]: the Ki at adenosine A1 receptor [1] was 51.3 nM; at adenosine A2 receptor it was over 10000 nM. For the same molecule, on adenosine A1 receptor [1], the “Selectivity Ratio (A2 Ki /A1 Ki)” value is on record as over 195. Further, on adenosine A1 receptor [2], the Kb turned out to be 6030 nM.
In the same order, the values of `Cn1cnc2c(N[C@@H]3C[C@H]4C[C@@H]3c3ccc(O)cc34)ncnc21` (relative stereo) [Example 36, (±)-N^6-[endo-2'-(5',6'-(6"-hydroxy)benzo)norbornyl]-9-methyladenine] are 2 nM, 631 nM, 316 and 275 nM.
Regarding `Cn1cnc2c(N[C@H]3C[C@H]4C[C@@H]3c3ccccc34)ncnc21` (relative stereo) [Example 38], on adenosine A1 receptor [1], the Ki was 17.8 nM and the “Selectivity Ratio (A2 Ki /A1 Ki)” value is on record as 331. The Ki on adenosine A2 receptor came out at 5890 nM. Further, the Kb on adenosine A1 receptor [2] is 1580 nM.
In the case of `Cn1cnc2c(N[C@@H]3C[C@H]4C[C@@H]3c3ccccc34)ncnc21` (relative stereo) [Example 39], on adenosine A1 receptor [1], the affinity corresponds to a Ki of 468 nM and the “Selectivity Ratio (A2 Ki /A1 Ki)” value is reported as 33. Moreover, at adenosine A2 receptor, affinity was put at a Ki of 15500 nM. In addition, the Kb on adenosine A1 receptor [2] came to 28800 nM.
The corresponding values for `COc1ccc2c(c1)[C@H]1C[C@H](Nc3ncnc4c3ncn4C)[C@@H]2C1` (relative stereo) [Example 40] are 8.91 nM, 631, 5620 nM and 1120 nM.
In the same order, the values of `COc1ccc2c(c1)[C@@H]1C[C@H]2[C@H](Nc2ncnc3c2ncn3C)C1` (relative stereo) [Example 41] are 209 nM, over 48, over 10000 nM and 64600 nM.
In the case of `Cn1cnc2c(N[C@@H]3C[C@@H]4CC[C@H]3C4)ncnc21` (relative stereo) [Example 49, N^6-(endo-2-norbornyl)-9-methyladenine, reference compound], at adenosine A1 receptor [1], the Ki was determined as 10 nM and the “Selectivity Ratio (A2 Ki /A1 Ki)” value came out at 617. In addition, the Ki on adenosine A2 receptor amounted to 6170 nM. Moreover, on adenosine A1 receptor [2], the “Selectivity Ratio (A2 KB /A1 KB)” value is 36 and the Kb was 550 nM.
With `CN(C)c1nc2c(NC3CCCC3)ncnc2n1C` [Example 8, N^6-cyclopentyl-8-dimethylamino-9-methyladenine], the Ki stood at 6.17 nM at adenosine A1 receptor [1] and 1350 nM on adenosine A2 receptor. Besides, the “Selectivity Ratio (A2 Ki /A1 Ki)” value on adenosine A1 receptor [1] is 219. Besides, the Kb at adenosine A1 receptor [2] was found to be 501 nM.
In the case of `CSc1nc2c(NC3CCCC3)ncnc2n1C` [Example 12, N^6-cyclopentyl-8-methylthio-9-methyladenine], the Ki at adenosine A1 receptor [1] is 2.5 nM; at adenosine A2 receptor it was 363 nM. Further, the “Selectivity Ratio (A2 Ki /A1 Ki)” value on adenosine A1 receptor [1] was 145. For the same molecule, the Kb at adenosine A1 receptor [2] was 71 nM.
Take `Cn1cnc2c(NC3CCCCC3)ncnc21` [Example 47, N^6-cyclohexyl-9-methyladenine, reference compound]: at adenosine A1 receptor [1], affinity was put at a Ki of 45.7 nM and the “Selectivity Ratio (A2 Ki /A1 Ki)” value is given as 241. This molecule yielded a Ki at adenosine A2 receptor of 11000 nM. Besides, at adenosine A1 receptor [2], the “Selectivity Ratio (A2 KB /A1 KB)” value is recorded as over 152 and the Kb turned out to be 2080 nM.

As a reminder, the Ki is the dissociation constant of the complex between target and ligand, obtained from inhibition or displacement. A high value points to lower affinity. As usually defined, the Kb is the affinity of an antagonist, worked out from how it opposes an agonist.
